Assays:
[1] = Lipophilicity, log D of the compound at pH 7.4 by reversed phase chromatography; type: physicochemical; conditions: buffer
[2] = Inhibition of gamma-secretase in rat primary neuronal cells assessed as reduction in amyloid beta (1 to 42) production; type: cell-based; conditions: Primary neuron
[3] = system: Mus musculus; test: Reduction in amyloid beta (1 to 42) levels in C57BL/6J mouse plasma at 10 mg/kg, po after 3 hrs; type: functional
[4] = Drug level in C57BL/6J mouse cortex at 10 mg/kg, po after 3 hrs; type: ADME, organism-based; conditions: read-out: Drug uptake
[5] = system: Mus musculus; test: Reduction in amyloid beta (1 to 42) levels in C57BL/6J mouse brain at 10 mg/kg, po after 3 hrs; type: functional
[6] = Drug level in C57BL/6J mouse plasma at 10 mg/kg, po after 3 hrs; type: ADME, organism-based
[7] = system: Mus musculus; test: Reduction in amyloid beta (1 to 40) levels in C57BL/6J mouse brain at 10 mg/kg, po after 3 hrs; type: functional
[8] = Inhibition of gamma-secretase in rat primary neuronal cells assessed as reduction in amyloid beta (1 to 40) production; type: cell-based; conditions: Primary neuron
[9] = system: Mus musculus; test: Reduction in amyloid beta (1 to 40) levels in C57BL/6J mouse plasma at 10 mg/kg, po after 3 hrs; type: functional
[10] = Inhibition of gamma-secretase-mediated Notch processing in rat primary neuronal cells; type: cell-based; conditions: Primary neuron

Compound | chromatographic logD [1] | IC50 [2] | further results
COc1cc(-c2nnc3n2CCCC3c2ccc(Cl)c(C(F)(F)F)c2)ccc1-c1cnc(C)o1 (stereo not drawn) | 3.2 | 220 nM | 
COc1cc(-c2nnc3n2CCC[C@H]3c2ccc(Cl)cc2C(F)(F)F)ccc1-c1cnc(C)o1 | 3.5 | 830 nM | 
COc1cc(-c2nnc3n2CCC[C@@H]3c2ccc(Cl)cc2C(F)(F)F)ccc1-c1cnc(C)o1 | 3.5 | 60 nM | % of vehicle at 10 mg/kg [3]: 31%; concentration at 3 h [4]: 2330 ng/g; % of vehicle at 10 mg/kg [5]: 50%; concentration at 3 h [6]: 6450 ng/mL; % of vehicle at 10 mg/kg [7]: 75%; IC50 [8]: 490 nM; % of vehicle at 10 mg/kg [9]: 63%; IC50 [10]: > 10000 nM
COc1cc(-c2nnc3n2CCCC3c2ccc(N3CCOCC3)cc2)ccc1-c1cnc(C)o1 (stereo not drawn) | 2.3 | 2300 nM | 
COc1cc(-c2nnc3n2CCC3c2ccc(Cl)c(Cl)c2)ccc1-c1cnc(C)o1 (stereo not drawn) | 3.3 | 630 nM | 
COc1cc(-c2nnc3n2CCCC3c2cc(C(F)(F)F)ccc2C(F)(F)F)ccc1-c1cnc(C)o1 (stereo not drawn) | 3.3 | 300 nM | 
COc1cc(-c2nnc3n2CCCC3c2cccc(C(F)(F)F)c2)ccc1-c1cnc(C)o1 (stereo not drawn) | 2.8 | 370 nM | 
COc1cc(-c2nnc3n2CCCCC3c2ccc(Cl)c(Cl)c2)ccc1-c1cnc(C)o1 (stereo not drawn) | 3.5 | 220 nM | 
COc1cc(-c2nnc3n2CCOC3c2ccc(Cl)c(Cl)c2)ccc1-c1cnc(C)o1 (stereo not drawn) | 3.1 | 530 nM | 

Continued by falling IC50 [2], values first:

chromatographic logD [1] | IC50 [2] | Compound | further results
4.1 | 2000 nM | COc1cc(-c2nnc(Cc3ccc(Cl)c(Cl)c3)[nH]2)ccc1-c1cnc(C)o1 | 
2.4 | 1900 nM | COc1ccc(C2CCCn3c(-c4ccc(-c5cnc(C)o5)c(OC)c4)nnc32)cc1 (stereo not drawn) | 
2.4 | 1500 nM | COc1cc(-c2nnc3n2CCCC3c2ccc(F)cc2)ccc1-c1cnc(C)o1 (stereo not drawn) | 
4.4 | 860 nM | COc1cc(-c2nc3n(n2)CCCC3c2ccc(Cl)c(Cl)c2)ccc1-c1cnc(C)o1 (stereo not drawn) | 
3.6 | 600 nM | COc1cc(-c2nnc3n2CCC=C3c2ccc(Cl)c(Cl)c2)ccc1-c1cnc(C)o1 | 
2.8 | 570 nM | COc1cc(-c2nnc3n2CCCC3c2ccc(Cl)cc2)ccc1-c1cnc(C)o1 (stereo not drawn) | 
2.9 | 510 nM | COc1cc(-c2nnc3n2CCCC3c2ccc(C(F)(F)F)cc2)ccc1-c1cnc(C)o1 (stereo not drawn) | 
3 | 380 nM | COc1cc(-c2nnc3n2CCCC3c2ccccc2C(F)(F)F)ccc1-c1cnc(C)o1 (stereo not drawn) | 
4.2 | 210 nM | COc1cc(-c2nnn3c2CCCC3c2ccc(Cl)c(Cl)c2)ccc1-c1cnc(C)o1 (stereo not drawn) | 
3.2 | 210 nM | COc1cc(-c2nnc3n2CCCC3c2ccc(Cl)c(Cl)c2)ccc1-c1cnc(C)o1 (stereo not drawn) | 
3.5 | 84 nM | COc1cc(-c2nnc3n2CCCC3c2ccc(Cl)cc2C(F)(F)F)ccc1-c1cnc(C)o1 (stereo not drawn) | 

Reference: ChEMBL document CHEMBL3616383, “Discovery of novel 5,6,7,8-tetrahydro[1,2,4]triazolo[4,3-a]pyridine derivatives as γ-secretase modulators” (Bioorg Med Chem Lett, 2015)
